According to patent US20100137449A1, “SUBSTITUTED 1,3-CYCLOPENTADIONE MULTI-TARGET PROTEIN KINASE MODULATORS OF CANCER, ANGIOGENESIS AND THE INFLAMMATORY PATHWAYS ASSOCIATED THEREWITH” (METAPROTEOMICS, LLC, priority 2007, published 2010):

How the values were obtained:
Assay in all cases: KinaseProfiler Assay
Pim-3(h) = Pim-3(h) (Homo sapiens, UniProt Q86V86)
PDGFRα(D842V)(h) = PDGFRα(D842V)(h) (Homo sapiens, UniProt P16234, D842V)
FGFR2(h) = FGFR2(h) (Homo sapiens, UniProt P21802)
CDK6/cydinD3(h) = CDK6/cydinD3(h) (Homo sapiens, UniProt Q00534)
Ret(V804M)(h) = Ret(V804M)(h) (Homo sapiens, UniProt P07949, V804M)
MRCKα(h) = MRCKα(h) (Homo sapiens, UniProt Q5VT25)
Abl(Y253F)(h) = Abl(Y253F)(h) (Homo sapiens, UniProt P00519, Y253F)
Fyn(h) = Fyn(h) (Homo sapiens, UniProt P06241)
ARK5(h) = molecular target: T1, ARK5(h) (Homo sapiens, UniProt O60285)
T1 sequence (O60285 1-661): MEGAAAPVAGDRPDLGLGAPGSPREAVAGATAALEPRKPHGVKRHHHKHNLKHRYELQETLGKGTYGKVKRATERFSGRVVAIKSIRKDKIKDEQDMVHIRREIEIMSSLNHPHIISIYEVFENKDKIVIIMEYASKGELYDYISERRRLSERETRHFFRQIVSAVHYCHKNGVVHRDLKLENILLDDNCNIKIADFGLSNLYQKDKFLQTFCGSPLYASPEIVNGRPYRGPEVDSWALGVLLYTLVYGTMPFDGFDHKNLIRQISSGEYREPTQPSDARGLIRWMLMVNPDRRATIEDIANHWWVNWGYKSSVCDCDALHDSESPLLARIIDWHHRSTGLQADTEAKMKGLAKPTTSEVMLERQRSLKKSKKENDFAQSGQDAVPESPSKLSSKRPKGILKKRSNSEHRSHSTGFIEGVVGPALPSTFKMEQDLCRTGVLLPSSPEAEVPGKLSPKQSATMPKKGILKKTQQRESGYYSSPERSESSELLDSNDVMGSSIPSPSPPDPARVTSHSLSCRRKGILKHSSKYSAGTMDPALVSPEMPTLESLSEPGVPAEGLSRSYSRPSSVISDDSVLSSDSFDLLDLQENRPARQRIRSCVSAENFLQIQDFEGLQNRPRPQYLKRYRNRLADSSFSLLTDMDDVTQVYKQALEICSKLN

Rsk1(r) = Rsk1(r) (Rattus norvegicus, UniProt Q63531)
CHK2(h) = CHK2(h) (Homo sapiens, UniProt O96017)
CaMKI(h) = CaMKI(h) (Homo sapiens, UniProt Q14012)
GSK3α(h) = GSK3α(h) (Homo sapiens, UniProt P49840)
Fgr(h) = Fgr(h) (Homo sapiens, UniProt P09769)
Fgr(h), sequence (P09769 whole entry): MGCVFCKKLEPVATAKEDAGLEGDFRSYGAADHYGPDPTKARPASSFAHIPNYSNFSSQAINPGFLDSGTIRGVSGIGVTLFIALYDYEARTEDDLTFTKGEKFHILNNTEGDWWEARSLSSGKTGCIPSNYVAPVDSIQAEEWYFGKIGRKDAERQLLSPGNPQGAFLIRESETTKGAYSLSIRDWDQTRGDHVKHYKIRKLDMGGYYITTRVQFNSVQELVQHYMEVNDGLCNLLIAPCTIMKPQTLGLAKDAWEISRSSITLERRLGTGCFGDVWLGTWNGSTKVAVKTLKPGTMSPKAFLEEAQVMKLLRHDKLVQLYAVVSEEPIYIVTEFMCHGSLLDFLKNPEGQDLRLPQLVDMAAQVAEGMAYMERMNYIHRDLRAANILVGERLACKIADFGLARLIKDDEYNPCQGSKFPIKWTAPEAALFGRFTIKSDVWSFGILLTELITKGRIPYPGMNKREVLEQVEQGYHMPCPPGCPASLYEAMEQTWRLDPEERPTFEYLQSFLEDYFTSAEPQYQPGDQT

CaMKI(h), sequence (Q14012 whole entry): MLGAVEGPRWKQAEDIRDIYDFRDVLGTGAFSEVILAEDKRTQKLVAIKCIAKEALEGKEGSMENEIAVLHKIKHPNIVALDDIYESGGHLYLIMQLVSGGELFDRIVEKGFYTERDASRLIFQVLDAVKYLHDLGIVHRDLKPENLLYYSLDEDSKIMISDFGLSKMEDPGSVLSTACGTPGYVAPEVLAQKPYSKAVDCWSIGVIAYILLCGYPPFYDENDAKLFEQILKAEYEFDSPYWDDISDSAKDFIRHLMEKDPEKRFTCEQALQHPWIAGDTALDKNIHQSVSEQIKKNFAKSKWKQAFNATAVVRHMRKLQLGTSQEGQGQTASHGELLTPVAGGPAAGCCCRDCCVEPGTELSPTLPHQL
Rsk1(r), sequence (Q63531 whole entry): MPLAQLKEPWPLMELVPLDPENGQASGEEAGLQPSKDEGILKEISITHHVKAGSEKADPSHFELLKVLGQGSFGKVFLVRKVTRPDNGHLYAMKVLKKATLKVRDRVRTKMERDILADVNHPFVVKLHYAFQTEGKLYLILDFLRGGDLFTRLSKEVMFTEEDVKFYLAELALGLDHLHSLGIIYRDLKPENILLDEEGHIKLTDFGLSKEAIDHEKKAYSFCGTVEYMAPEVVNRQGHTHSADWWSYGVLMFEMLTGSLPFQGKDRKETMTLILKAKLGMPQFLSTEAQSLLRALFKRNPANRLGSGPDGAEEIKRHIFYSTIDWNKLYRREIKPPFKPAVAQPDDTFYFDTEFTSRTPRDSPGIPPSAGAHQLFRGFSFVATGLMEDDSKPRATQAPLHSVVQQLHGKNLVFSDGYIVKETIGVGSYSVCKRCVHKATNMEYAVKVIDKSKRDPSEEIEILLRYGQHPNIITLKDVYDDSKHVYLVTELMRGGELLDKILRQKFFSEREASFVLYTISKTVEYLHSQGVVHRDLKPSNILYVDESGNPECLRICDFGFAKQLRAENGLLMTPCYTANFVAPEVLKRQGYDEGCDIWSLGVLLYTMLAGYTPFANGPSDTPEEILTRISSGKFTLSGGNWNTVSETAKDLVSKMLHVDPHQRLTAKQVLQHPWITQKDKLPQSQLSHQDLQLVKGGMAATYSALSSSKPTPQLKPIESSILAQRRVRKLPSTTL
Ret(V804M)(h), sequence (P07949 29-1114 V804M): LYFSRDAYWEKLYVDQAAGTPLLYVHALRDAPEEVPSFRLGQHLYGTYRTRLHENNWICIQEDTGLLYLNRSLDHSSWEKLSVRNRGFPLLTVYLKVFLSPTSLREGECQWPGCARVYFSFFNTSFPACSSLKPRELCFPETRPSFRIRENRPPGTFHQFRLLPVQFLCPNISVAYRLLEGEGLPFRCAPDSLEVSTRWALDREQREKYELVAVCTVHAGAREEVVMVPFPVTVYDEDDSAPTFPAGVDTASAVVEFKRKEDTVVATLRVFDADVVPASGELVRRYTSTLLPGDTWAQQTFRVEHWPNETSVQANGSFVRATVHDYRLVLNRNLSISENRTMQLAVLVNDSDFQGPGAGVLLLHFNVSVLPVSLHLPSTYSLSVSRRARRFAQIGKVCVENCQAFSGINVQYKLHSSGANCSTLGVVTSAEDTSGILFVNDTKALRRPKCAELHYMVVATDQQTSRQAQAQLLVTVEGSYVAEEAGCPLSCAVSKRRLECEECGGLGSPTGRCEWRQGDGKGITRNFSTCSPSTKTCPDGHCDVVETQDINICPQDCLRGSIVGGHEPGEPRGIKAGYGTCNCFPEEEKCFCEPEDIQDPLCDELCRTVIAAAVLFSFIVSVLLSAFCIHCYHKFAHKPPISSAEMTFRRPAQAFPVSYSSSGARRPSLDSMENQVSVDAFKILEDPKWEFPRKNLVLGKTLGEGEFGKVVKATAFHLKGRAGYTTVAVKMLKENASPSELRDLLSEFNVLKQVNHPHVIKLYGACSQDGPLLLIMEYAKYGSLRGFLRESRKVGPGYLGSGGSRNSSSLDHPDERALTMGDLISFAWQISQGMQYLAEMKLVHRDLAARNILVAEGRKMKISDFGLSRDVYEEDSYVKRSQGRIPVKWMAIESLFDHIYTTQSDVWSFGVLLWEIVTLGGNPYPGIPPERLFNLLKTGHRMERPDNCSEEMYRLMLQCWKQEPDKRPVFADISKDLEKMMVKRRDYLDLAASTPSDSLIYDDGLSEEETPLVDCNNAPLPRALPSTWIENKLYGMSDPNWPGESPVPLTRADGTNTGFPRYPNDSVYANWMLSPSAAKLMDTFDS
FGFR2(h), sequence (P21802 22-821): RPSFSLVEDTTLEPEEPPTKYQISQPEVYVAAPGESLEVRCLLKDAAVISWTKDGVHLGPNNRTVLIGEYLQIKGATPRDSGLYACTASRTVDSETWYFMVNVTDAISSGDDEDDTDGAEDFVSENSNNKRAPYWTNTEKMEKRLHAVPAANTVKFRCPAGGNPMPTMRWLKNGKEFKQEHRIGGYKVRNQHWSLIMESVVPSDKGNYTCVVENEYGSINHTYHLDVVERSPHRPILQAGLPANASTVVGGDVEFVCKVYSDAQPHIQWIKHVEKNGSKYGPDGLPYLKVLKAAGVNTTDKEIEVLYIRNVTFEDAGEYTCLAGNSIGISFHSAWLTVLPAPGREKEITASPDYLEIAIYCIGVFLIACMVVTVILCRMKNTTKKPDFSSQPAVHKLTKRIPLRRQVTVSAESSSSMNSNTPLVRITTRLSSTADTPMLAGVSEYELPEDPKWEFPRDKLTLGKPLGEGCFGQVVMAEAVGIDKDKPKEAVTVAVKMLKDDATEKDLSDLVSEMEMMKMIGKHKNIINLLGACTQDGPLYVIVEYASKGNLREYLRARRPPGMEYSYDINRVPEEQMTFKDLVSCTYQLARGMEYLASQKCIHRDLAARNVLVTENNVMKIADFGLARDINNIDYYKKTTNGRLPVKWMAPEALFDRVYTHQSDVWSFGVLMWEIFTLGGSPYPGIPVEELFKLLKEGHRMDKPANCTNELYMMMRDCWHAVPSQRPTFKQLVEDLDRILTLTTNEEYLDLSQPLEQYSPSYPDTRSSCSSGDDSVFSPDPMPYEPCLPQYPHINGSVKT
CHK2(h), sequence (O96017 whole entry): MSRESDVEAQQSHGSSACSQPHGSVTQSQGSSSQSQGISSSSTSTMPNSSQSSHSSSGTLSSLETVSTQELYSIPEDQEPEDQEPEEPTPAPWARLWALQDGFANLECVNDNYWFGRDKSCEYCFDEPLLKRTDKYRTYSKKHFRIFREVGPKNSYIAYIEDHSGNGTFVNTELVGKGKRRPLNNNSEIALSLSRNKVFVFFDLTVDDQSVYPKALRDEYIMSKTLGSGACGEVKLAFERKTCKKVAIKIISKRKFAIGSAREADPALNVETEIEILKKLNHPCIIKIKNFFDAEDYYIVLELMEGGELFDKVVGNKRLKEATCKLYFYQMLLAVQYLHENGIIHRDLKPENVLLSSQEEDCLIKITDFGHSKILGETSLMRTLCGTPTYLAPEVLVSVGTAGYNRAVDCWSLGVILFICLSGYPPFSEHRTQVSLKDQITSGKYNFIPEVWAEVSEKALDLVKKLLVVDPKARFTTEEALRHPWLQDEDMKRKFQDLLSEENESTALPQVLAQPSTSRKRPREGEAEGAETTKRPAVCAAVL
CDK6/cydinD3(h), sequence (Q00534 whole entry): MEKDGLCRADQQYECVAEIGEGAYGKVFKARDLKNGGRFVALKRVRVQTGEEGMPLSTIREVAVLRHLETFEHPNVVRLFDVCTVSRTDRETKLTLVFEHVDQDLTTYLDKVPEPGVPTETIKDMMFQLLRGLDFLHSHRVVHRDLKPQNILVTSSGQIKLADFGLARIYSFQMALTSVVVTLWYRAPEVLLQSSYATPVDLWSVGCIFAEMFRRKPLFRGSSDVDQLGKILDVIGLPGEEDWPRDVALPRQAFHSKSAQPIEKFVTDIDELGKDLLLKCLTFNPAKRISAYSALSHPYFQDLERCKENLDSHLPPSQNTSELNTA
CDK6/cydinD3(h), sequence (P30281 whole entry partner): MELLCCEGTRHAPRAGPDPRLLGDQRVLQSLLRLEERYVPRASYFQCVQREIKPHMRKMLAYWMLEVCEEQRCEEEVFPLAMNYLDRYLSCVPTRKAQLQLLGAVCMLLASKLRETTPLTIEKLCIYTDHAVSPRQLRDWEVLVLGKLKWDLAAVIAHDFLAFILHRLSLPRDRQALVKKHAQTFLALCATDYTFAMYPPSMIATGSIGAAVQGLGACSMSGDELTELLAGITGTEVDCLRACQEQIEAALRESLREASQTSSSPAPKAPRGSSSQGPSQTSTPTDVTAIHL

CC(C)CCC(=O)[C@]1(O)C(O)=C(C(=O)C(C)C)C(=O)[C@H]1CCC(C)C [TH2, tetrahydroiso-cohumulone] was tested, and the kinase inhibition (Pim-3(h); 1 μg/ml) was 104% of control, the kinase inhibition (Pim-3(h); 5 μg/ml) was 104% of control and the kinase inhibition (Pim-3(h); 25 μg/ml) was 72% of control. For the same molecule, the kinase inhibition (Pim-3(h); 50 μg/ml) was 70% of control, the kinase inhibition (Pim-3(h); 100 μg/ml) was 64% of control and the kinase inhibition (PDGFRα(D842V)(h); 1 μg/ml) was 113% of control. For the same molecule, the kinase inhibition (PDGFRα(D842V)(h); 5 μg/ml) was 124% of control, the kinase inhibition (PDGFRα(D842V)(h); 25 μg/ml) was 128% of control and the kinase inhibition (PDGFRα(D842V)(h); 50 μg/ml) was 129% of control. For the same molecule, the kinase inhibition (PDGFRα(D842V)(h); 100 μg/ml) was 127% of control, the kinase inhibition (FGFR2(h); 1 μg/ml) was 111% of control and the kinase inhibition (FGFR2(h); 5 μg/ml) was 98% of control. For the same molecule, the kinase inhibition (FGFR2(h); 25 μg/ml) was 102% of control, the kinase inhibition (FGFR2(h); 50 μg/ml) was 96% of control and the kinase inhibition (FGFR2(h); 100 μg/ml) was 78% of control. The kinase inhibition (CDK6/cydinD3(h); 1 μg/ml) was 120% of control, the kinase inhibition (CDK6/cydinD3(h); 5 μg/ml) was 109% of control and the kinase inhibition (CDK6/cydinD3(h); 25 μg/ml) was 117% of control. The kinase inhibition (CDK6/cydinD3(h); 50 μg/ml) was 105% of control, the kinase inhibition (CDK6/cydinD3(h); 100 μg/ml) was 92% of control and the kinase inhibition (Ret(V804M)(h); 1 μg/ml) was 107% of control. For the same molecule, the kinase inhibition (Ret(V804M)(h); 5 μg/ml) was 104% of control, the kinase inhibition (Ret(V804M)(h); 25 μg/ml) was 110% of control and the kinase inhibition (Ret(V804M)(h); 50 μg/ml) was 94% of control. For the same molecule, the kinase inhibition (Ret(V804M)(h); 100 μg/ml) was 88% of control, the kinase inhibition (MRCKα(h); 1 μg/ml) was 100% of control and the kinase inhibition (MRCKα(h); 5 μg/ml) was 94% of control. For the same molecule, the kinase inhibition (MRCKα(h); 25 μg/ml) was 112% of control, the kinase inhibition (MRCKα(h); 50 μg/ml) was 102% of control and the kinase inhibition (MRCKα(h); 100 μg/ml) was 97% of control. The kinase inhibition (Abl(Y253F)(h); 1 μg/ml) was 117% of control, the kinase inhibition (Abl(Y253F)(h); 5 μg/ml) was 100% of control and the kinase inhibition (Abl(Y253F)(h); 25 μg/ml) was 83% of control. The kinase inhibition (Abl(Y253F)(h); 50 μg/ml) was 65% of control, the kinase inhibition (Abl(Y253F)(h); 100 μg/ml) was 58% of control and the kinase inhibition (Fyn(h); 1 μg/ml) was 103% of control. For the same molecule, the kinase inhibition (Fyn(h); 5 μg/ml) was 105% of control, the kinase inhibition (Fyn(h); 25 μg/ml) was 103% of control and the kinase inhibition (Fyn(h); 50 μg/ml) was 105% of control. For the same molecule, the kinase inhibition (Fyn(h); 100 μg/ml) was 89% of control, the kinase inhibition (ARK5(h); 1 μg/ml) was 103% of control and the kinase inhibition (ARK5(h); 5 μg/ml) was 104% of control. The kinase inhibition (ARK5(h); 25 μg/ml) was 99% of control, the kinase inhibition (ARK5(h); 50 μg/ml) was 77% of control and the kinase inhibition (ARK5(h); 100 μg/ml) was 74% of control. The kinase inhibition (Rsk1(r); 1 μg/ml) was 101% of control, the kinase inhibition (Rsk1(r); 5 μg/ml) was 102% of control and the kinase inhibition (Rsk1(r); 25 μg/ml) was 93% of control. For the same molecule, the kinase inhibition (Rsk1(r); 50 μg/ml) was 63% of control, the kinase inhibition (Rsk1(r); 100 μg/ml) was 36% of control and the kinase inhibition (CHK2(h); 1 μg/ml) was 107% of control. For the same molecule, the kinase inhibition (CHK2(h); 5 μg/ml) was 107% of control, the kinase inhibition (CHK2(h); 25 μg/ml) was 105% of control and the kinase inhibition (CHK2(h); 50 μg/ml) was 108% of control. The kinase inhibition (CHK2(h); 100 μg/ml) was 97% of control, the kinase inhibition (CaMKI(h); 1 μg/ml) was 96% of control and the kinase inhibition (CaMKI(h); 5 μg/ml) was 93% of control. The kinase inhibition (CaMKI(h); 25 μg/ml) was 73% of control, the kinase inhibition (CaMKI(h); 50 μg/ml) was 48% of control and the kinase inhibition (CaMKI(h); 100 μg/ml) was 48% of control. For the same molecule, the kinase inhibition (GSK3α(h); 1 μg/ml) was 94% of control, the kinase inhibition (GSK3α(h); 5 μg/ml) was 92% of control and the kinase inhibition (GSK3α(h); 25 μg/ml) was 61% of control. For the same molecule, the kinase inhibition (GSK3α(h); 50 μg/ml) was 51% of control, the kinase inhibition (GSK3α(h); 100 μg/ml) was 43% of control and the kinase inhibition (Fgr(h); 1 μg/ml) was 95% of control. For the same molecule, the kinase inhibition (Fgr(h); 5 μg/ml) was 96% of control, the kinase inhibition (Fgr(h); 25 μg/ml) was 112% of control and the kinase inhibition (Fgr(h); 50 μg/ml) was 106% of control. For the same molecule, the kinase inhibition (Fgr(h); 100 μg/ml) was 86% of control.
